Measurements as given in patent US20120053235A1, “Dihydromyricetin as an IKK-beta inhibitor used for treatment of arthritis, cancer and autoimmune conditions, and other diseases or disorders” (HONG KONG BAPTIST UNIVERSITY, priority 2010, published 2012).

Assays:
[1] = system: NF-κB-Luciferase reporter in Jurkat T cells; assay: NF-κB reporter assay (luciferase); assay type: cell-based; conditions: 20 ng/ml PMA plus 1 μM ionomycin, 6 hours; FIG. 6B
Protocol: The Jurkat T cells are transiently transfected with NF-κB-Luciferase reporter plasmid with lipofectamine LTX (Invitrogen). The transfected cells were treated with 20 ng/ml PMA plus 1 μM ionomycin in the presence or absence of biotin-DMY for 6 hours. The cells were then lysed in Passive Lysis Buffer (Promega) and the transcriptional activity was determined by measuring the activity of firefly luciferase in a microplate luminometer (Perkin Elmer) using Luciferase Reporter Assay (Promega).

[2] = system: c-Fos nuclear translocation in human T lymphocytes; assay: c-Fos nuclear translocation assay (Western blot); assay type: cell-based; conditions: pretreated 1 hour, PMA plus ionomycin 120 minutes
Protocol: For c-Jun and c-Fos nuclear translocation assays, the human T lymphocytes (6×10^6/well) were pretreated with DMY for 1 hour, and then stimulated with 20 ng/ml PMA plus […] ionomycin for 120 minutes. After the cells were harvested and washed with PBS twice, the nuclear proteins of cells were then prepared using NucBuster™ Reagents. Afterwards, the washed cells were re-suspended using 60 μl NucBuster™ Reagent 1 per 30 μl of packed cells and processed twice by vortexing for 15 seconds, and followed by the incubation on ice for 5 minutes and second vortexing for 15 seconds, and finally centrifuged at 16000 g for 5 minutes. The supernatants containing cytoplasmic proteins were discarded; the cell pellets were re-suspended in 45 μl of NucBuster Extraction Reagent 2. The same vortexing, icing, and repeated vortexing steps were repeated once to prepare the nuclear proteins of the cells.
Protein concentrations were determined by using Bio-Rad Protein assay. Equal amounts of nuclear proteins or whole-cell lysates were analyzed by 10% SDS-PAGE. After electrophoresis, the proteins were electro-transferred to the nitrocellulose membranes. […]

[3] = system: collagen II induced arthritis in female Wistar rats; assay: Collagen II induced arthritis (CIA); assay type: in vivo
Protocol: Collagen II solution (collagen, 2 mg/ml in 0.05M acetic acid, Chondrex 20022, Redmond, Wash., USA) was emulsified with an equal volume of incomplete Freund's adjuvant (IFA, Chondrex 7002, Redmond, Wash., USA) at 4° C. using a high-speed homogenizer. In the experiment of CIA, DMY was encapsulated with HP-CD (1:8.48) and then dissolved in the normal saline with drug concentrations of 50 and 100 mg/kg body weight. Rats were intradermally injected at the base of the tail with 100 μl collagen/incomplete Freund's adjuvant (IFA) emulsion containing […] of collagen II by the use of a glass syringe equipped with a locking hub and a 27-G needle. On day 7 after the primary immunization, all the rats were given a booster injection of 100 μg of collagen II in IFA. On the day after the onset of arthritis (day 13), the CIA rats were exposed to a daily intraperitoneal administration of DMY (50 and 100 mg/kg) until day 30 of the study. DEX (0.1 mg/kg, one per day), MTX (3.75 mg/kg, twice per week), and indomethacin (1 mg/kg, one per day) were used as positive reference drugs. The rats were inspected daily from the onset of arthritis characterized by edema and/or erythema in the paws. The incidence and severity of arthritis were evaluated using an arthritic scoring system, and bi-hind paw volumes and body weight were measured every 2 days started on the day when the arthritic signs were firstly visible (day 13). In the arthritic scoring system, lesions (i.e., the clinical arthritic signs) of the four paws of each rat were graded from 0 to 4 according to the extent of both edema and erythema of the periarticular tissues. As such, 16 was the potential maximum of the combined arthritic scores per animal. The hind paw volumes were measured using a plethysmometer chamber (7140 UGO. Basile, Comerio, Italy) and expressed as the mean volume change of both hind paws of the rats. Body weight of the rats was monitored with a 0.1 g precision balance (Sartorius AG, Goettingen, Germany). On day 30, all rats were sacrificed with liver, spleen and thymus being collected and weighted. The organ index for a specific organ is equal to the ratio of the weight of that organ to a body weight of 100 g.

[4] = target: T1, His-tagged recombinant human IKK-β (Homo sapiens, UniProt O14920); assay: IKK activity assay (K-LISA IKK-β-Inhibitor Screening Kit); assay type: biochemical; conditions: DMY at 50 μM and 100 μM; FIG. 4A
T1 construct: His; purchased Calbiochem
T1 sequence (O14920 1-756): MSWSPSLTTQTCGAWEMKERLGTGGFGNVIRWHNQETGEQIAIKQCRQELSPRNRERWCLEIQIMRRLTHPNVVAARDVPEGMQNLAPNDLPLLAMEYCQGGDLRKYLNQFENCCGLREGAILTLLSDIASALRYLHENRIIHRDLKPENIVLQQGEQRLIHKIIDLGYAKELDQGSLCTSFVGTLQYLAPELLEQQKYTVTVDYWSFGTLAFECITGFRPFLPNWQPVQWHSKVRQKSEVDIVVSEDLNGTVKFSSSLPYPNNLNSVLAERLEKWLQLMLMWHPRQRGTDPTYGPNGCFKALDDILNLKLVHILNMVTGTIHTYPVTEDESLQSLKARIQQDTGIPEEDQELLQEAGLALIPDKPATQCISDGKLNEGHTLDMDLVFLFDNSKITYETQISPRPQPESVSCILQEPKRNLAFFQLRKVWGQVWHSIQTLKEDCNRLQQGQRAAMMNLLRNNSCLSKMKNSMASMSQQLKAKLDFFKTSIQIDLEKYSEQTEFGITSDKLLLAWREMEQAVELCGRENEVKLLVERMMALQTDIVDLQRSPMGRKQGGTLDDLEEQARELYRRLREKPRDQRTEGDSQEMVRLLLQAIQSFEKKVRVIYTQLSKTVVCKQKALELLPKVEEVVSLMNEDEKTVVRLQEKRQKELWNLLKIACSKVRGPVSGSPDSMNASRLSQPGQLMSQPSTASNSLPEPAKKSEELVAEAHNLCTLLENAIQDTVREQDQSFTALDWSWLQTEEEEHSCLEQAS
Protocol: The direct inhibitory effect of DMY on IKK activity was examined by using K-LISA™ IKK-β-Inhibitor Screening Kit (Calbiochem). Both the glutathione-S-transferase (GST)-IκB-α substrate and His-tagged recombinant human IKK-β were incubated with or without DMY in the wells of a glutathione-coated 96-well plate. The reaction was terminated with the addition of kinase stop solution after being incubated at 30° C. for 30 minutes. Then, anti-Phospho IκB-α (Ser32/Ser36) antibody was used to determine the phosphorylated GST-IκB-α substrate, and the horse radish peroxidase (HRP)-conjugated color was developed by 3,3′,5,5′-tetramethylbenzidine (TMB) substrate. ELISA stop solution was used to stop the color development and the absorbance was measured at 450 nm the wavelength at which was directly related to the level of IKK activity.

[5] = CIA rats, daily intraperitoneal 50 and 100 mg/kg, day 13 to day 30, vs vehicle-treated, FIGS. 10A and B

## O=C1c2c(O)cc(O)cc2O[C@H](c2cc(O)c(O)c(O)c2)[C@H]1O [DMY, dihydromyricetin]
[1]
  NF-κB transcriptional activity: significantly suppressed
[2]
  nuclear translocation of c-Fos: suppress nuclear translocation
[3]; CIA rats, DMY 100 mg/kg, MTX 3.75 mg/kg twice per week
  ameliorative effect compared with MTX: better than that of MTX
[3]; [5]
  arthritic scores: significantly reduced
  hind paw volume: significantly reduced
[3]; rat, in vivo
  organ indexes of spleen and/or thymus: no adverse effect
[4]
  activity of IKK-β: significantly inhibited the activity of IKK-β
